The structures appear in SMILES notation. Where “and” joins values, the source holds several entries; their conditions need not be identical. Equal entries are not always repeated.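 Briefly, cells in 96-well plates were exposed to five compound concentrations for 48 h, and endpoints were estimated by linear interpolation. GI50 marks 50% less growth.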 Calls of active or inactive are those of the source. Cut-off read from the data, not from the text of the source: active = GI50 up to about 1.1 µM and inactive = higher. Where only a bound is given, the exact number is not on record here.

Test systems include RPMI-8226; NCI/ADR-RES; NCI-H23; MCF7; OVCAR-8; UO-31; MDA-MB-435; ACHN; SW-620; NCI-H522; SF-539; HL-60; HCC 2998; HOP-62; NCI-H226; COLO 205; BT-549; SK-MEL-2; LOX IMVI; T47D.
Common to all, as to assay: NCI tumour cell line growth inhibition, 48 h

Consider `C=CC(C)(C)n1cc(C2=C3OC(=O)C(c4cn(C(C)(C)C=C)c5ccccc45)=C3OC2=O)c2ccccc21`, for which the GI50 in the assay with RPMI-8226, with NCI/ADR-RES, with NCI-H23, in the assay with MCF7, in the assay on OVCAR-8 and with UO-31 was > 100 µM (inactive) each time. The GI50 in the assay on MDA-MB-435, in the assay on ACHN, with SW-620, with NCI-H522, in the assay on SF-539 and in the assay with HL-60 was > 100 µM (inactive) throughout. Also, the GI50 with HCC 2998, in the assay on HOP-62, with NCI-H226, with COLO 205, in the assay on BT-549 and in the assay on SK-MEL-2 was > 100 µM (inactive) each time. In the assay with LOX IMVI, the GI50 was > 100 µM (inactive).

For the compound `CCN(CC)c1ccc(NC(=S)NN(C)C)cc1`, the GI50 in the assay on RPMI-8226, in the assay with NCI/ADR-RES, in the assay with NCI-H23, with MCF7, in the assay with OVCAR-8 and in the assay with UO-31 was > 10 µM (inactive) throughout. Also, the GI50 in the assay with T47D, in the assay on MDA-MB-435, with ACHN, with SW-620, in the assay with NCI-H522 and in the assay on SF-539 was > 10 µM (inactive) throughout. Further, the GI50 with HL-60, in the assay with HCC 2998, in the assay with HOP-62, with NCI-H226, in the assay with COLO 205 and in the assay on SK-MEL-2 was > 10 µM (inactive) in each case. Besides, the GI50 with LOX IMVI is > 10 µM (inactive).

As to `CCOC(=O)c1ccc(-c2ccc(Cl)cc2)[nH]1`, the GI50 in the assay with NCI/ADR-RES, in the assay on NCI-H23, in the assay on OVCAR-8, in the assay with UO-31, in the assay with MDA-MB-435 and in the assay on ACHN was > 10 µM (inactive) throughout. Besides, the GI50 in the assay on NCI-H522 was > 10 µM (inactive); with SF-539, > 10 µM (inactive); in the assay on HL-60, > 10 µM (inactive); with HCC 2998, > 10 µM (inactive); in the assay on NCI-H226, 8.47 µM (inactive); with BT-549, > 10 µM (inactive). Also, the GI50 in the assay with SK-MEL-2 is > 10 µM (inactive).

Take `C/C(=N\O)c1ccc(OCc2cc(C(F)(F)F)cc(C(F)(F)F)c2)cc1`: the GI50 was 61.2 µM (inactive) in the assay on NCI/ADR-RES; 95.3 µM (inactive) in the assay on NCI-H23; 20 µM (inactive) in the assay with MCF7; 41.9 µM (inactive) with OVCAR-8; > 100 µM (inactive) with UO-31; 75.3 µM (inactive) in the assay on T47D. The GI50 in the assay with MDA-MB-435 was 43.8 µM (inactive); in the assay with ACHN, 25.5 µM (inactive); in the assay on SW-620 it was 32 µM (inactive); in the assay on NCI-H522, 38.1 µM (inactive); in the assay with SF-539 it was 60.5 µM (inactive); in the assay on HL-60, 4.13 µM (inactive). Moreover, the GI50 with HCC 2998 was 32.1 µM (inactive); in the assay with HOP-62 it was 50.1 µM (inactive); in the assay with NCI-H226 it was 40.6 µM (inactive); with COLO 205, 29.9 µM (inactive); with SK-MEL-2, 57.1 µM (inactive); with LOX IMVI, 39 µM (inactive).

For `COC(=O)c1ccccc1/C=C1/Cc2ccccc2C1=O`, the GI50 with RPMI-8226 was 22 µM (inactive); in the assay on NCI/ADR-RES, 36.5 µM (inactive); in the assay on NCI-H23 it was 68.4 µM (inactive); in the assay on MCF7 it was 11.5 µM (inactive); in the assay on OVCAR-8, 47.1 µM (inactive); with UO-31 it was 50.6 µM (inactive). In addition, the GI50 with T47D is 19.6 µM (inactive); with MDA-MB-435 it was > 100 µM (inactive); in the assay on ACHN, 39.2 µM (inactive); in the assay with SW-620 it was 28.3 µM (inactive); with NCI-H522, 31.7 µM (inactive); with SF-539, > 100 µM (inactive). Further, the GI50 in the assay with HL-60 is 30.1 µM (inactive); in the assay on HCC 2998, > 100 µM (inactive); with HOP-62, 98.4 µM (inactive); in the assay with NCI-H226, 63.8 µM (inactive); in the assay with COLO 205 it was 30 µM (inactive); in the assay with LOX IMVI, 17.8 µM (inactive).

Consider `CS(=O)(=O)c1ccc(NNc2cc(=O)[nH]c(=O)[nH]2)cc1`, for which the GI50 in the assay with RPMI-8226, in the assay with NCI/ADR-RES, in the assay with NCI-H23, with UO-31, in the assay on T47D and with ACHN was > 100 µM (inactive) each time. Also, the GI50 in the assay on SW-620 was > 100 µM (inactive); in the assay with NCI-H522, 21.7 µM (inactive); with SF-539, > 100 µM (inactive); in the assay on HL-60, 52.7 µM (inactive); in the assay on HCC 2998, > 100 µM (inactive); in the assay with HOP-62, > 100 µM (inactive). Besides, the GI50 in the assay on NCI-H226, in the assay with COLO 205, with BT-549, in the assay with SK-MEL-2 and in the assay with LOX IMVI was > 100 µM (inactive) throughout.

Turning to `COc1ccc(C2c3cc4c(cc3OC(NNc3ccccc3)C2C)OCO4)cc1` (stereo not given), the GI50 in the assay on RPMI-8226 was 4.47 µM (inactive); in the assay on NCI-H23 it was 13.4 µM (inactive); in the assay with MCF7, 4.04 µM (inactive); in the assay with OVCAR-8, 24.9 µM (inactive); with UO-31, 4.33 µM (inactive); with T47D, 6.12 µM (inactive). Further, the GI50 in the assay on MDA-MB-435 is 4.71 µM (inactive); in the assay with ACHN, 1.93 µM (inactive); in the assay with SW-620, 21.7 µM (inactive); with NCI-H522 it was 2.77 µM (inactive); with SF-539 it was 2.36 µM (inactive); in the assay on HL-60 it was 5.25 µM (inactive). In addition, the GI50 with HCC 2998 was 1.82 µM (inactive); with HOP-62, 3.5 µM (inactive); with NCI-H226, 16.3 µM (inactive); in the assay with COLO 205 it was 7.06 µM (inactive); in the assay with BT-549, 20.4 µM (inactive); in the assay with SK-MEL-2, 21.7 µM (inactive). In the assay with LOX IMVI, the GI50 is 16.6 µM (inactive).

For `CO[C@@H]1C[C@H]2[C@@H]3CC[C@H]([C@@H](C)CO)[C@@]3(C)CC[C@@H]2[C@@]2(C)CC[C@H]3C[C@]312`, the GI50 in the assay with RPMI-8226 was 25 µM (inactive); with NCI/ADR-RES, 24.9 µM (inactive); in the assay with NCI-H23 it was 40.7 µM (inactive); with MCF7, 16.2 µM (inactive); in the assay with OVCAR-8, 31 µM (inactive); in the assay on UO-31, 39.8 µM (inactive). The GI50 is 20 µM (inactive) in the assay on T47D; 27.5 µM (inactive) in the assay on MDA-MB-435; 26.5 µM (inactive) with ACHN; 31.9 µM (inactive) in the assay with SW-620; 19.7 µM (inactive) with NCI-H522; 43.1 µM (inactive) in the assay on SF-539. Further, the GI50 was 25.2 µM (inactive) in the assay with HL-60; 33.1 µM (inactive) in the assay on HCC 2998; 46.8 µM (inactive) with HOP-62; 24.4 µM (inactive) in the assay on NCI-H226; 17.6 µM (inactive) in the assay with COLO 205; 19.3 µM (inactive) in the assay with LOX IMVI.

For the compound `O=C(CP(c1ccccc1)c1ccccc1)c1cccc(C(=O)CP(c2ccccc2)c2ccccc2)c1`, the GI50 is 12.6 µM (inactive) in the assay with RPMI-8226; > 100 µM (inactive) in the assay with NCI/ADR-RES; 17.9 µM (inactive) in the assay on MCF7; 89.7 µM (inactive) in the assay on OVCAR-8; 12.5 µM (inactive) in the assay with UO-31; 14.2 µM (inactive) in the assay on T47D. Besides, the GI50 in the assay on MDA-MB-435 was 45.7 µM (inactive); with ACHN it was 84.1 µM (inactive); in the assay on SW-620 it was > 100 µM (inactive); with SF-539 it was > 100 µM (inactive); in the assay with HL-60, 16.2 µM (inactive); in the assay on HCC 2998 it was 74.1 µM (inactive). In addition, the GI50 with HOP-62 is 96.6 µM (inactive); with NCI-H226, 66.4 µM (inactive); in the assay on COLO 205, 12.1 µM (inactive); in the assay on SK-MEL-2, > 100 µM (inactive).

As to `COc1ccc(-c2c(C#N)c(N)n(C3OC(CO)C(O)C(O)C3O)c(=S)c2C#N)cc1` (stereo not given), the GI50 in the assay with RPMI-8226 was > 100 µM (inactive); with NCI-H23, > 100 µM (inactive); in the assay with OVCAR-8, > 100 µM (inactive); in the assay with UO-31, 82.2 µM (inactive); with T47D, > 100 µM (inactive) and 93.3 µM (inactive); in the assay on ACHN, 87.9 µM (inactive) and 97.3 µM (inactive). Moreover, the GI50 with SW-620 is > 100 µM (inactive) and 73.1 µM (inactive); with SF-539 it was > 100 µM (inactive); in the assay on HL-60, > 100 µM (inactive); in the assay on HCC 2998, > 100 µM (inactive); in the assay with HOP-62, > 100 µM (inactive) and 51.9 µM (inactive); in the assay on NCI-H226, > 100 µM (inactive). The GI50 is > 100 µM (inactive) and 76.9 µM (inactive) in the assay with BT-549; 55.8 µM (inactive) and 30.4 µM (inactive) in the assay on SK-MEL-2; > 100 µM (inactive) and 77.4 µM (inactive) in the assay on LOX IMVI.

As for `C=CCNC1=C2C[C@@H](C)C[C@@H](OC)[C@H](OC(=O)CN)[C@H](C)/C=C(\C)[C@@H](OC(N)=O)[C@H](OC)/C=C\C=C(/C)C(=O)NC(=CC1=O)C2=O`, the GI50 with RPMI-8226 was 3.59 µM (inactive); in the assay on NCI/ADR-RES it was 36.1 µM (inactive); in the assay on NCI-H23, 0.48 µM (active); in the assay on MCF7, 0.162 µM (active); in the assay on OVCAR-8 it was 0.904 µM (active); in the assay on UO-31, 5.87 µM (inactive). Further, the GI50 in the assay on MDA-MB-435 is 0.418 µM (active); in the assay with ACHN, 5.13 µM (inactive); in the assay with SW-620 it was 0.183 µM (active); in the assay with NCI-H522 it was 0.706 µM (active); with SF-539, 0.883 µM (active); in the assay on HL-60, 1.69 µM (inactive). In addition, the GI50 in the assay on HCC 2998 was 0.27 µM (active); in the assay on HOP-62, 0.521 µM (active); in the assay on COLO 205, 0.204 µM (active); in the assay with BT-549, 10.3 µM (inactive); in the assay on SK-MEL-2, 0.453 µM (active); in the assay on LOX IMVI it was 0.528 µM (active).

For the origin of these results see ChEMBL document CHEMBL1201862, “PubChem BioAssay data set” (2004).
